# Results taken from PMC7544826 (Communications Biology, 2020).
# Legend:
# Notum [1] = molecular target: T1, Notum (Homo sapiens, UniProt Q6P988, C330S); experiment: Thermal shift assay (SYPRO Orange) of Notum; conditions: compound 500 µM; for Thermoflour melting curve fluorescence of Notum: Fig 2c
# T1 sequence (Q6P988 81-451 C330S): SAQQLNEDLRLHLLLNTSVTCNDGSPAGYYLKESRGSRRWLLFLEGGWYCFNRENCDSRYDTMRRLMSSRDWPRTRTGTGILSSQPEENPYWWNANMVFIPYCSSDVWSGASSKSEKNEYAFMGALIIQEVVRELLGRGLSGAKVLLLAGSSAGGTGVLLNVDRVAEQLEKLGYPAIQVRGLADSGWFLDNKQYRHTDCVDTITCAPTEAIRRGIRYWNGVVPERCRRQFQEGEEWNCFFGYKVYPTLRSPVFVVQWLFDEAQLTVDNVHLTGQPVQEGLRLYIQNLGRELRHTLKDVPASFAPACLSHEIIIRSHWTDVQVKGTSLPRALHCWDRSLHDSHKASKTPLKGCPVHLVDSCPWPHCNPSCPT
# Protocol: Reference wells, i.e. solutions without compounds were used to compare the melting temperature (Tm). The experiments were performed in triplicate.
# Notum [2] = molecular target: T1, Notum; experiment: Notum activity assay with OPTS as substrate; format: biochemical; set-up: The human Notum enzyme core comprising amino acids S81–T451 with a C330S mutation; made in house; dialyzed conditioned medium used without purification; conditions: result in words
# Protocol: OPTS is a common lipase substrate with an octanoyl lipid linked to a fluorescent moiety. It is not a natural Notum substrate; however, it can be used to quantify the enzymatic activity of purified Notum protein[23],[25],[28]. […] The fluorescent lipase substrate OPTS was dissolved in water at a concentration of 20 µM. […] The inhibition curves were fitted with a one-site model with GraphPad Prism 8 software.
# Notum [3] = molecular target: T1, Notum; experiment: SPR equilibrium binding to biotinylated Notum on streptavidin chip; set-up: The human Notum enzyme core comprising amino acids S81–T451 with a C330S mutation; made in house; dialyzed conditioned medium used without purification; conditions: result in words
# Protocol: The human Notum core sequence was cloned in a pHL-Avi3 vector[49] and co-transfected with the pDisplay_BirA-ER plasmid[50] into HEK293T cells with the media supplemented with 20 µM biotin. This procedure allows in vivo biotinylation to occur, and the dialyzed conditioned medium was directly used for SA sensor chip immobilization without protein purification. […] Approximately 2500 resonance units (RU) of the biotinylated Notum was coupled onto the chip. […] The response was plotted versus the concentration of the analytes and fitted by nonlinear regression to a one-site saturation binding model (GraphPad Prism 8).
structure (smiles),measurement,setting,value
"Cn1c(=O)[nH]c2ncn(C)c2c1=O [paraxanthine, 1,7-dimethylxanthine]",Thermoflour melting curve fluorescence of Notum,Notum [1]; Temperature 24.5,1987.07
same,Thermoflour melting curve fluorescence of Notum,Notum [1]; Temperature 25.5,1782.57
same,Thermoflour melting curve fluorescence of Notum,Notum [1]; Temperature 26.5,1579.35
same,Thermoflour melting curve fluorescence of Notum,Notum [1]; Temperature 27.5,1384.26
same,Thermoflour melting curve fluorescence of Notum,Notum [1]; Temperature 28.5,1239.77
same,Thermoflour melting curve fluorescence of Notum,Notum [1]; Temperature 29.5,1129.04
same,Thermoflour melting curve fluorescence of Notum,Notum [1]; Temperature 30.5,1031.12
same,Thermoflour melting curve fluorescence of Notum,Notum [1]; Temperature 31.5,918.053
same,Thermoflour melting curve fluorescence of Notum,Notum [1]; Temperature 32.5,770.537
same,Thermoflour melting curve fluorescence of Notum,Notum [1]; Temperature 33.5,609.721
same,Thermoflour melting curve fluorescence of Notum,Notum [1]; Temperature 34.5,426.953
same,Thermoflour melting curve fluorescence of Notum,Notum [1]; Temperature 35.5,213.386
same,Thermoflour melting curve fluorescence of Notum,Notum [1]; Temperature 36.5,-34.2239
same,Thermoflour melting curve fluorescence of Notum,Notum [1]; Temperature 37.5,-296.182
same,Thermoflour melting curve fluorescence of Notum,Notum [1]; Temperature 38.5,-499.812
same,Thermoflour melting curve fluorescence of Notum,Notum [1]; Temperature 39.5,-637.629
same,Thermoflour melting curve fluorescence of Notum,Notum [1]; Temperature 40.5,-751.582
same,Thermoflour melting curve fluorescence of Notum,Notum [1]; Temperature 41.5,-837.247
same,Thermoflour melting curve fluorescence of Notum,Notum [1]; Temperature 42.5,-891.039
same,Thermoflour melting curve fluorescence of Notum,Notum [1]; Temperature 43.5,-901.613
same,Thermoflour melting curve fluorescence of Notum,Notum [1]; Temperature 44.5,-863.856
same,Thermoflour melting curve fluorescence of Notum,Notum [1]; Temperature 45.5,-795.543
same,Thermoflour melting curve fluorescence of Notum,Notum [1]; Temperature 46.5,-693.454
same,Thermoflour melting curve fluorescence of Notum,Notum [1]; Temperature 47.5,-545.549
same,Thermoflour melting curve fluorescence of Notum,Notum [1]; Temperature 48.5,-352.113
same,Thermoflour melting curve fluorescence of Notum,Notum [1]; Temperature 49.5,-114.575
same,Thermoflour melting curve fluorescence of Notum,Notum [1]; Temperature 50.5,165.368
same,Thermoflour melting curve fluorescence of Notum,Notum [1]; Temperature 51.5,475.15
same,Thermoflour melting curve fluorescence of Notum,Notum [1]; Temperature 52.5,801.618
same,Thermoflour melting curve fluorescence of Notum,Notum [1]; Temperature 53.5,1178.09
same,Thermoflour melting curve fluorescence of Notum,Notum [1]; Temperature 54.5,1624.42
same,Thermoflour melting curve fluorescence of Notum,Notum [1]; Temperature 55.5,2146.78
same,Thermoflour melting curve fluorescence of Notum,Notum [1]; Temperature 56.5,2764.33
same,Thermoflour melting curve fluorescence of Notum,Notum [1]; Temperature 57.5,3495.42
same,Thermoflour melting curve fluorescence of Notum,Notum [1]; Temperature 58.5,4462.48
same,Thermoflour melting curve fluorescence of Notum,Notum [1]; Temperature 59.5,5756.59
same,Thermoflour melting curve fluorescence of Notum,Notum [1]; Temperature 60.5,7495.13
same,Thermoflour melting curve fluorescence of Notum,Notum [1]; Temperature 61.5,9729.04
same,Thermoflour melting curve fluorescence of Notum,Notum [1]; Temperature 62.5,12262.8
same,Thermoflour melting curve fluorescence of Notum,Notum [1]; Temperature 63.5,14775.9
same,Thermoflour melting curve fluorescence of Notum,Notum [1]; Temperature 64.5,17022.5
same,Thermoflour melting curve fluorescence of Notum,Notum [1]; Temperature 65.5,18955.6
same,Thermoflour melting curve fluorescence of Notum,Notum [1]; Temperature 66.5,20556.8
same,Thermoflour melting curve fluorescence of Notum,Notum [1]; Temperature 67.5,21849.9
same,Thermoflour melting curve fluorescence of Notum,Notum [1]; Temperature 68.5,22932.3
same,Thermoflour melting curve fluorescence of Notum,Notum [1]; Temperature 69.5,23847.9
same,Thermoflour melting curve fluorescence of Notum,Notum [1]; Temperature 70.5,24631
same,Thermoflour melting curve fluorescence of Notum,Notum [1]; Temperature 71.5,25359.6
same,Thermoflour melting curve fluorescence of Notum,Notum [1]; Temperature 72.5,25975.5
same,Thermoflour melting curve fluorescence of Notum,Notum [1]; Temperature 73.5,26515.7
same,Thermoflour melting curve fluorescence of Notum,Notum [1]; Temperature 74.5,27075.8
same,Thermoflour melting curve fluorescence of Notum,Notum [1]; Temperature 75.5,27622.8
same,Thermoflour melting curve fluorescence of Notum,Notum [1]; Temperature 76.5,28157.3
same,Thermoflour melting curve fluorescence of Notum,Notum [1]; Temperature 77.5,28616.3
same,Thermoflour melting curve fluorescence of Notum,Notum [1]; Temperature 78.5,29028.5
same,Thermoflour melting curve fluorescence of Notum,Notum [1]; Temperature 79.5,29470.8
same,Thermoflour melting curve fluorescence of Notum,Notum [1]; Temperature 80.5,29930.8
same,Thermoflour melting curve fluorescence of Notum,Notum [1]; Temperature 81.5,30385.9
same,Thermoflour melting curve fluorescence of Notum,Notum [1]; Temperature 82.5,30819.6
same,Thermoflour melting curve fluorescence of Notum,Notum [1]; Temperature 83.5,31270.2
same,Thermoflour melting curve fluorescence of Notum,Notum [1]; Temperature 84.5,31691.8
same,Thermoflour melting curve fluorescence of Notum,Notum [1]; Temperature 85.5,32102.2
same,Thermoflour melting curve fluorescence of Notum,Notum [1]; Temperature 86.5,32523.2
same,Thermoflour melting curve fluorescence of Notum,Notum [1]; Temperature 87.5,32949.1
same,Thermoflour melting curve fluorescence of Notum,Notum [1]; Temperature 88.5,33332.7
same,Thermoflour melting curve fluorescence of Notum,Notum [1]; Temperature 89.5,33682.6
same,Thermoflour melting curve fluorescence of Notum,Notum [1]; Temperature 90.5,34084.7
same,Thermoflour melting curve fluorescence of Notum,Notum [1]; Temperature 91.5,34496.3
same,Thermoflour melting curve fluorescence of Notum,Notum [1]; Temperature 92.5,34921.9
same,Thermoflour melting curve fluorescence of Notum,Notum [1]; Temperature 93.5,35339.5
same,Thermoflour melting curve fluorescence of Notum,Notum [1]; Temperature 94.5,35764.6
same,Thermoflour melting curve fluorescence of Notum,Notum [1]; Temperature 95.5,36159.7
same,Thermoflour melting curve fluorescence of Notum,Notum [1]; Temperature 96.5,36500.9
same,Thermoflour melting curve fluorescence of Notum,Notum [1]; Temperature 97.5,36857
same,Effect on Tm of Notum,Notum [1],little effect on the Tm
same,Melting temperature (Tm) of Notum,Notum [1]; Notum without compounds Tm 63.6 °C,63.5 °C
same,Notum inhibitory effect in OPTS enzyme assay,Notum [2],could not detect obvious Notum inhibitory effects
same,Binding to Notum (SPR response),Notum [3],did not observe significant responses
same,Binding to Notum (SPR response),Notum [3]; listed as Paraxanthine,do not bind Notum
